The structures appear in SMILES notation.

The text below walks through data of patent publication US20070010454A1, “Method for treating tumor cells resulting in minimal liver toxicity” (priority 2005, published 2007).

The test system of one series is melanoma. The note with it: cited from earlier work.
The next series relates to B16-F0 melanoma cells. Kind of series: MTT cytotoxicity assay in B16-F0 melanoma cell line. Type of series: cell-based, mouse. On the procedure:
The mouse B16-F0 cell line was obtained from American Type Culture Collection, USA. A frozen B16-F0 cell vial was washed twice with DMEM media before culturing in 8 mL DMEM supplemented with fetal calf serum (FCS) (10%) and streptomycin/penicillin (100 U/mL) in a T-25 flask (17). All the cell culture processes were carried out in a type II vertical laminar air flow chamber. The B16-F0 cultures were kept at 37° C. under a 5% CO2 atmosphere in a TS Autoflow CO2 Water-Jacketed Incubator (NUAIRE, USA). The culture medium was changed when acidification was indicated by the pH indicator and when needed. To detach the cells from the flask, the media was first removed from the flask. The remaining media was then washed out using sterile phosphate buffered saline (PBS) (2-3 mL). Subsequently, Versene (2-5 mL) was added to the flask and the sample was incubated for 2-3 min in the incubator to provide time for cells to detach. The detached cells were rinsed with ˜10 mL of pre-warmed sterile PBS to dilute Versene. The mixture was transferred into a 50 mL tube. The flask was additionally rinsed with sterile PBS and the content was added to the rest of the cells collected. The cells were then spun down at 800 RPM (Beckman GPR Centrifuge, USA) for 3-5 min. The PBS-Versene mixture was aspirated off. Pelletted cells were then re-suspended in DMEM media (supplemented by FCS 10% and antibiotics 100 U/mL) followed by splitting the mixture into one T-75 flask containing 30 mL media (25% of the media was supplemented from the previous culture step as conditioning media).
To evaluate cytotoxicity, cells were obtained from exponentially growing 90-95% confluent cultures and seeded at 12,500 cells/well in 96-well plates. The cells were kept in 100 µL fresh DMEM media (supplemented by FCS 10% and antibiotics 100 U/mL) for 24 h to allow cell adhesion and environmental adaptation. Subsequently, the cells were treated with additional 150 µL DMEM (supplemented with FCS 10% and antibiotics 100 U/mL) containing various concentrations of alkoxyphenols for 1-4 days. At 24 h interval, the medium was removed and the wells were washed three times using DMEM media alone before adding 40 µL of 2 mg/mL yellow tetrazolium dye (3-(4,5-dimethylthiazolyl-2)-2,5-diphenyltetrazolium bromide) (MTT) (17). The plates were returned to the incubator for a period of 4 h. […] The plates were stored at room temperature in a dark place for an additional 2 h before reading them at 570 nm using XFluor Plate Reader (Tecan US, Inc, USA). […]
Lethal concentrations (LC) which can cause 10% and 50% of the cell death were calculated from the linear regression equation derived from graphing the viability of the cells at day 2 (on x axis) versus the concentration of the drug (on y axis).
(Tetrazolium dyes change colour on reduction, which living cells bring about.)

The subject of series [1] is tyrosinase. Nature of the series: Tyrosinase mediated GSH depletion assay. Format: biochemical. The settings on record: for GSH depleted in tyrosinase/O2 metabolizing system / GSH depleted in tyrosinase/O2 metabolizing system (in words): alkoxyphenol 100 µM, GSH 200 µM; for GSH depleted in tyrosinase/O2 metabolizing system, average equivalent: average over the four compounds named. On the procedure:
Tyrosinase (10 µL; 2500 U/mL) was added to a mixture of alkoxyphenol (100 µM) and GSH (200 µM) in a final volume of 1 mL phosphate buffer (0.1 M, pH 7.4, DETAPAC 1 mM). The mixture was pre-incubated for 30, 90, and 180 min at 37° C. A 250 µL aliquot was added to trichloroacetic acid (25 µL; 30% w/v), vortexed and left at room temperature for 5 min. A 100 µL aliquot of the supernatant was then added to a mixture of Ellman's reagent 5,5′-dithiobis-(2-nitrobenzoic acid) DTNB (25 µL; 2 mg/mL) and Tris/HCl buffer (875 µL; 0.1 M, pH 8.94), and then vortexed. […] The standard curve for GSH measurement gave a regression coefficient of greater than 0.99 over the range of 5-200 µM GSH concentrations (data not shown).

The test system of series [2] is rat liver microsomal P450. Nature of the series: Microsomal mediated GSH depletion assay (rat liver microsomes/NADPH/O2). Type of series: in vitro ADME. On the procedure:
Adult male Sprague-Dawley rats, 250-300 g, were obtained from Charles River Laboratories, USA, fed ad libitum, were allowed to acclimatize for 1 week on clay chip bedding in a room with a 12 h light photocycle, an environmental temperature of 21-23° C. and 50-60% relative humidity.
The rats were anesthetized by sodium pentobarbital (60 mg/kg) before surgery in order to prepare the animal before liver removal. Hepatic microsomes were prepared by differential centrifugation as described previously (14). Briefly, the liver was removed and weighed in a beaker on ice. The liver was cut into pieces and washed by cold KCl (154 mM): Tris/HCl (50 mM, pH 7.4) buffer solution then suspended into 4 volumes of KCl:Tris/HCl buffer. The tissue was gently homogenized using an electrical homogenizer and subsequently by a handheld glass tissue grinder before centrifuging at 1935 g (Beckman Avanti J-251, Beckman Rotor-JA-25.5) at 4° C. for 15 mm to remove tissue and cell debris. The supernatant was centrifuged at 12,100 g at 4° C. for 15 min to remove subcellular organelles followed by centrifigation at 100,000 g (Beckman Optima LE-80K, Beckman Rotor-45 Ti) at 4° C. for 1 h. The supernatant was discarded and micorsomes were separated and suspended in 5 mL Tris/HCl buffer (100 mM, pH 7.4) containing 1 mM DETAPAC. The mixture was homogenized using a handheld glass tissue grinder after which an additional 15 mL Tris HCl buffer was added and the solution was aliquoted in 750 µL and stored at −70° C. for subsequent use. Microsomal protein content was determined by a modified Lowry method (15).
The amount of GSH conjugates formed were determined colorimetrically using Ellman's reagent 5,5′-dithiobis-(2-nitrobenzoic acid) (DTNB) (13). Incubation mixtures contained in a final volume of 1 mL phosphate buffer (0.1 M, pH 7.4, DETAPAC 1 mM), 2 mg/mL rat liver microsomes, 200 µM GSH, 1 mM NADPH, and 100 µM alkoxyphenols. The mixtures were gently mixed at 37° C. from which 250 µL aliquots were taken at 30, 60, and 90 min time-interval points into Eppendorf tubes containing 25 µL trichloroacetic acid (30% w/v). Following protein precipitation and centrifugation for 5 min, the GSH levels of a 100 µL aliquot of the supernatant was determined by the addition of 0.1 M Tris/HCl buffer, pH 8.94 (875 µL), and 2 mg/mL DTNB (25 µL). The reduced DTNB formed was determined at 412 nm on a GBC spectral spectrophotometer.
On the technique in general: Microsomes from liver hold many membrane-bound enzymes, among them those of drug oxidation.

Series [3] has as its system tyrosinase. Kind of series: UV-VIS spectroscopy of tyrosinase mediated metabolism of alkoxyphenols. Type of series: biochemical. The settings on record: alkoxyphenol 100 µM, tyrosinase 20 U/mL; compared with the other alkoxyphenols. On the procedure:
UV-VIS spectroscopy of tyrosinase mediated metabolism of alkoxyphenols The spectra of a solution containing alkoxyphenol (100 µM) and tyrosinase (20 U/mL) were recorded in the absence and presence of GSH (200 µM) using a GBC UV-Visible spectral spectrophotometer (GC Scientific, Australia). The spectra of the mixture were obtained when GSH was added to the solution either before or after the addition of tyrosinase. The control spectrum was that of the respective alkoxyphenol solution (100 µM) in phosphate buffer [0.1 M (pH 7.4) containing DETAPAC (1 mM)].

The next series concerns isolated rat hepatocytes. The note with it: reactive metabolite of 4-HA formed by liver P450s; cited from earlier work.

As to `COc1ccc(O)cc1` [4-HA, 4-hydroxyanisole, reference compound], the “clinical liver toxicity (in words)” value in the series on melanoma (clinical trials terminated) is reported as “serious liver damage occurred”. The “clinical effect (in words)” value with melanoma (topical application and intra-arterial infusions into patients' legs) was “Depigmentation and tumor shrinkage”. The “fold more toxic than the toxic value calculated from Eq. 2 (QSTR)” value in the series on B16-F0 melanoma cells (LC50 day 2, B16-F0) is recorded as 1.7 fold. In the series on tyrosinase [1] (30 min incubation), the “GSH depleted in tyrosinase/O2 metabolizing system” value is listed as 1.8 molecular equivalent of GSH per mole.

On to `CCCOc1ccc(O)cc1` [4-nPP], for which the “GSH depleted in tyrosinase/O2 metabolizing system (in words)” value with tyrosinase [1] (90 min incubation) is listed as “mole per mole basis”.

Turning to `CC(C)COc1ccc(O)cc1` [4-iBP], the “GSH depleted in tyrosinase/O2 metabolizing system” value in the series with tyrosinase [1] (90 min incubation) is 1.8 molecular equivalent of GSH per mole.

As to `CC(C)(C)Oc1ccc(O)cc1` [4-tBP, 4-t-butoxyphenol], in the series on B16-F0 melanoma cells (LC50 day 2, B16-F0), the “fold less toxic than the toxic value calculated from Eq. 2 (QSTR)” value is reported as 3.6 fold. Besides, in series [2] (100 µM concentration), the “GSH depletion by microsomal P450/NADPH/O2, fold less than 4-HA” value came to 2.3 fold and the “glutathione depletion by microsomal P450 system (in words)” value was “lowest rate of GSH depletion”. Besides, the “glutathione depletion by microsomal P450 system (in words)” value in series [2] (100 µM concentration, listed as 4-t-butoxyphenol) is on record as “lowest amount of glutathione depletion”. In addition, the “GSH depleted by rat liver microsomes/NADPH/O2” value in series [2] (90 min incubation, alkoxyphenol 100 µM, 2 mg/mL microsomes, 200 µM GSH) is listed as 0.5 equivalents of GSH per mole. The “GSH depleted in tyrosinase/O2 metabolizing system, average equivalent” value (“GSH depleted … average equivalent” below) in the series on tyrosinase [1] (90 min incubation) was determined as 0.15 molar per mole. For the same compound, the “fold lower rate of oxidation by tyrosinase/O2 metabolizing system” value in the series on tyrosinase [3] came to 20 fold.

Regarding `CCCCCCOc1ccc(O)cc1` [4-nHP, 4-n-hexyloxyphenol], the “toxicity towards B16-F0 cells (in words)” value in the series on B16-F0 melanoma cells (MTT assay, 1-4 days) is on record as “greatest toxicity”. In addition, the “metabolism by liver P450 microsomal preparation (in words)” value in series [2] is given as “minimal metabolism”. Besides, the “glutathione depletion in microsomal preparations (in words)” value in series [2] (at calculated LC10 and LC50 lethal concentrations for B16-F0) is “minimally depleting glutathione”. In addition, the “GSH depleted in tyrosinase/O2 metabolizing system” value in the series with tyrosinase [1] (90 min incubation) is 1.8 molecular equivalent of GSH per mole.

For `CCOc1ccc(O)cc1` [4-EP], the “GSH depleted in tyrosinase/O2 metabolizing system (in words)” value with tyrosinase [1] (90 min incubation) is “mole per mole basis”.

With `CC(C)Oc1ccccc1O` [2-iPP, 2-iso-propoxyphenol], in the series with B16-F0 melanoma cells (LC50 day 2, B16-F0), the “fold less toxic than the toxic value calculated from Eq. 2 (QSTR)” value was 3.6 fold. Further, the “GSH depleted … average equivalent” value in the series with tyrosinase [1] (90 min incubation) is reported as 0.15 molar per mole. Besides, the “fold lower rate of oxidation by tyrosinase/O2 metabolizing system” value in the series with tyrosinase [3] worked out at 20 fold.

`CC(C)Oc1ccc(O)cc1` [4-iPP]: the “GSH depleted … average equivalent” value in the series with tyrosinase [1] (90 min incubation) is 0.15 molar per mole.

For `CCC(C)Oc1ccc(O)cc1` (stereo not shown) [4-sBP], the “GSH depleted … average equivalent” value with tyrosinase [1] (90 min incubation) was determined as 0.15 molar per mole.

Turning to `O=C1C=CC(=O)C=C1` [p-quinone], the “toxicity to isolated rat hepatocytes (in words)” value in the series on isolated rat hepatocytes was “highly toxic”.

`CCCCOc1ccc(O)cc1` [4-nBP]: the “GSH depleted in tyrosinase/O2 metabolizing system” value in the series on tyrosinase [1] (90 min incubation) is reported as 1.8 molecular equivalent of GSH per mole.
